Assay results from the supplement of paper PMC10307832.

Assays:
Experiment in all cases: relative viability (nuclei count vs DMSO), 5 days (fraction); higher = more cells survive
Bosutinib + Bortezomib = compound: COc1cc(Nc2c(C#N)cnc3cc(OCCCN4CCN(C)CC4)c(OC)cc23)c(Cl)cc1Cl [Bosutinib] + CC(C)C[C@H](NC(=O)[C@H](Cc1ccccc1)NC(=O)c1cnccn1)B(O)O [Bortezomib] (partner 0.002 µM)
Procedure, shortened: (§1)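 The day after seeding in 1536-well plates, lung cancer cell lines were treated by pin tool with a single drug, or with a fixed anchor-drug dose together with five library-drug doses (not always all listed) in √10 steps. After 5 days, a combined fix-and-stain solution (final 0.05% Triton X-100, 1% formaldehyde, 1 ug/ml Hoechst) was added. Nuclei counted on 4× images gave relative viability as treated counts over vehicle counts, reported as the median of duplicate plates.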

Bosutinib + Linsitinib = compound: COc1cc(Nc2c(C#N)cnc3cc(OCCCN4CCN(C)CC4)c(OC)cc23)c(Cl)cc1Cl [Bosutinib] + C[C@]1(O)C[C@@H](c2nc(-c3ccc4ccc(-c5ccccc5)nc4c3)c3c(N)nccn32)C1 [Linsitinib] (partner 1 µM)
Procedure, shortened: as §1

Bosutinib + Phenformin = compound: COc1cc(Nc2c(C#N)cnc3cc(OCCCN4CCN(C)CC4)c(OC)cc23)c(Cl)cc1Cl [Bosutinib] + N=C(N)NC(=N)NCCc1ccccc1 [Phenformin] (partner 250 µM)
Procedure, shortened: as §1

Bosutinib + AZD7762 = compound: COc1cc(Nc2c(C#N)cnc3cc(OCCCN4CCN(C)CC4)c(OC)cc23)c(Cl)cc1Cl [Bosutinib] + NC(=O)Nc1cc(-c2cccc(F)c2)sc1C(=O)N[C@H]1CCCNC1 [AZD7762] (partner 0.2 µM)
Procedure, shortened: as §1

Bosutinib + Decitabine = compound: COc1cc(Nc2c(C#N)cnc3cc(OCCCN4CCN(C)CC4)c(OC)cc23)c(Cl)cc1Cl [Bosutinib] + Nc1ncn([C@H]2C[C@H](O)[C@@H](CO)O2)c(=O)n1 [Decitabine] (partner 2 µM)
Procedure, shortened: as §1

Row | Cell Line | relative viability (Bosutinib + Bortezomib; first compound 0.01 µM) | relative viability (Bosutinib + Bortezomib; first compound 0.03162 µM) | relative viability (Bosutinib + Bortezomib; first compound 0.1 µM) | relative viability (Bosutinib + Bortezomib; first compound 1 µM) | relative viability (Bosutinib + Linsitinib; first compound 0.01 µM) | relative viability (Bosutinib + Linsitinib; first compound 0.03162 µM) | relative viability (Bosutinib + Linsitinib; first compound 0.1 µM) | relative viability (Bosutinib + Linsitinib; first compound 1 µM) | relative viability (Bosutinib + Phenformin; first compound 0.01 µM) | relative viability (Bosutinib + Phenformin; first compound 0.03162 µM) | relative viability (Bosutinib + Phenformin; first compound 0.1 µM) | relative viability (Bosutinib + Phenformin; first compound 1 µM) | relative viability (Bosutinib + AZD7762; first compound 0.01 µM) | relative viability (Bosutinib + AZD7762; first compound 0.03162 µM) | relative viability (Bosutinib + AZD7762; first compound 0.1 µM) | relative viability (Bosutinib + AZD7762; first compound 1 µM) | relative viability (Bosutinib + Decitabine; first compound 0.01 µM) | relative viability (Bosutinib + Decitabine; first compound 0.03162 µM) | relative viability (Bosutinib + Decitabine; first compound 0.1 µM) | relative viability (Bosutinib + Decitabine; first compound 1 µM)
1 | HOP-62 | 0.839 | 0.755 | 0.548 | 0.904 | 0.881 | 0.949 | 1.01 | 1.11 | 0.699 | 0.706 | 0.65 | 0.741 | 0.497 | 0.619 | 0.721 | 0.4 | 0.208 | 0.215 | 0.209 | 0.253
2 | LC-2-ad | 1.05 | 0.98 | 1.02 | 1.14 | 0.902 | 0.879 | 0.871 | 0.78 | 0.659 | 0.549 | 0.577 | 0.694 | 0.88 | 0.818 | 0.846 | 0.755 | 0.797 | 0.849 | 0.875 | 0.784
3 | LCLC-97TM1 | 0.567 | 0.937 | 0.894 | 0.572 | 0.213 | 0.216 | 0.209 | 0.175 | 0.452 | 0.434 | 0.541 | 0.411 | 0.31 | 0.286 | 0.315 | 0.191 | 0.249 | 0.262 | 0.215 | 0.271
4 | LCLC-103H | 1.03 | 1.13 | 1.13 | 0.936 | 1.11 | 1.12 | 1.04 | 1.04 | 0.338 | 0.322 | 0.327 | 0.409 | 0.854 | 0.74 | 0.827 | 0.771 | 0.744 | 0.792 | 0.723 | 0.69
5 | LOU-NH91 | 0.469 | 0.487 | 0.514 | 0.578 | 0.939 | 0.921 | 0.834 | 0.521 | 0.717 | 0.699 | 0.636 | 0.497 | 0.78 | 0.757 | 0.704 | 0.679 | 0.818 | 0.834 | 0.765 | 0.653
6 | LU99A | 1.16 | 1.17 | 1.33 | 0.938 | 0.587 | 0.576 | 0.584 | 0.678 | 0.92 | 0.781 | 0.832 | 0.478 | 0.376 | 0.362 | 0.354 | 0.287 | 0.871 | 0.945 | 0.961 | 0.861
7 | LXF-289 | 1 | 1.03 | 1.02 | 0.991 | 0.948 | 0.971 | 0.946 | 1.01 | 0.508 | 0.515 | 0.521 | 0.514 | 1.17 | 1.14 | 1.14 | 1.02 | 0.338 | 0.368 | 0.427 | 0.449
8 | NCI-H23 | 1 | 1.21 | 1.04 | 1.05 | 0.442 | 0.556 | 0.647 | 0.46 | 0.807 | 0.77 | 0.831 | 0.751 | 0.356 | 0.205 | 0.202 | 0.164 | 0.35 | 0.305 | 0.321 | 0.287
9 | NCI-H322M | 1.23 | 1.14 | 1.35 | 1.22 | 0.964 | 0.954 | 1.03 | 0.789 | 0.865 | 0.777 | 0.846 | 0.449 | 0.609 | 0.534 | 0.546 | 0.52 | 0.635 | 0.735 | 0.616 | 0.493
10 | NCI-H441 | 0.579 | 0.726 | 0.44 | 0.806 | 0.583 | 0.504 | 0.58 | 0.543 | 0.946 | 0.869 | 0.821 | 0.657 | 1.3 | 1.02 | 1.05 | 1.09 | 0.24 | 0.264 | 0.279 | 0.287
11 | NCI-H460 | 1.17 | 1.04 | 1.01 | 0.91 | 0.753 | 0.835 | 0.668 | 0.338 | 0.557 | 0.492 | 0.491 | 0.356 | 0.645 | 0.576 | 0.482 | 0.415 | 0.5 | 0.475 | 0.539 | 0.419
12 | NCI-H596 | 1 | 0.967 | 1.11 | 1.02 | 0.941 | 0.978 | 1.16 | 0.831 | 0.883 | 0.668 | 0.721 | 0.646 | 1.08 | 1.07 | 1.08 | 0.918 | 1.03 | 1.07 | 1.05 | 0.876
13 | NCI-H647 | 1.06 | 1.06 | 0.919 | 0.405 | 0.913 | 1.11 | 1.21 | 0.817 | 0.606 | 0.494 | 0.436 | 0.348 | 0.608 | 0.516 | 0.421 | 0.252 | 0.442 | 0.36 | 0.302 | 0.386
14 | NCI-H650 | 0.875 | 0.854 | 0.858 | 0.962 | 1.17 | 0.846 | 0.985 | 1.21 | 0.447 | 0.45 | 0.472 | 0.482 | 0.908 | 0.992 | 1.04 | 0.981 | 0.327 | 0.295 | 0.29 | 0.419
